How the values were obtained:
Format in all cases: biochemical
PKC-γ = PKC-γ (Homo sapiens, UniProt P05129); experiment: Protein Kinase C Histone-Based Assay; conditions: histone III substrate
Protocol: (§1) Compounds were evaluated for PKC isozyme selectivity using histone III as the substrate. PKC isozymes α, β-II or γ were added to a reaction mixture that contained 20 mM HEPES, (pH 7.4), 940 μM CaCl2, 10 mM MgCl2, 1 mM EGTA. 100 μg/mL phosphatidylserine, 20 μg/mL diacylglycerol, 30 μM ATP, […] [^33P]ATP and 200 μg/mL histone III. The reaction was incubated for 10 min at 30° C. Reactions were terminated by TCA precipitation and spotting on Whatman P81 filters. Filters were washed in 75 mM phosphoric acid and the radioactivity quantified by liquid scintillation counting.

PKC-βII = PKC-βII (Homo sapiens, UniProt P05771); experiment: Protein Kinase C Histone-Based Assay; conditions: histone III substrate
Protocol: as §1

PKC-α = PKC-α (Homo sapiens, UniProt P17252); experiment: Protein Kinase C Histone-Based Assay; conditions: histone III substrate
Protocol: as §1

[1] = target: T1, recombinant rabbit GSK-3β protein (Oryctolagus cuniculus, UniProt G1T8E2); experiment: Glycogen Synthase Kinase-3 Assay (33P-ATP phosphorylation of PPI-2)
T1 construct: purchased New England Biolabs
Protocol: Compounds were tested for the ability to inhibit recombinant rabbit GSK-3β protein using the following protocol. The test compound was added to a reaction mixture containing Protein Phosphatase Inhibitor-2 (PPI-2) (Calbiochem) (45 ng), rabbit GSK-3β protein (New England Biolabs) (0.75 units) and ^33P-ATP (1 μCi) in 50 mM Tris-HCl (pH 8.0), 10 mM MgCl2, 0.1% BSA, 1 mM DTT and 100 μM Sodium Vanadate. The mixture was reacted for 90 minutes at 30° C. to allow phosphorylation of the PPI-2 protein and then the protein in the reaction was precipitated using 10% TCA. The precipitated protein was collected on filter plates (MultiScreen-DV/Millipore), which were subsequently washed. Finally, the radioactivity was quantified using a TopCount Scintillation Counter (Packard). […] Staurosporine or Valproate, known inhibitors of GSK-3β, were used as a positive control for screening.

T1 sequence (G1T8E2 1-432): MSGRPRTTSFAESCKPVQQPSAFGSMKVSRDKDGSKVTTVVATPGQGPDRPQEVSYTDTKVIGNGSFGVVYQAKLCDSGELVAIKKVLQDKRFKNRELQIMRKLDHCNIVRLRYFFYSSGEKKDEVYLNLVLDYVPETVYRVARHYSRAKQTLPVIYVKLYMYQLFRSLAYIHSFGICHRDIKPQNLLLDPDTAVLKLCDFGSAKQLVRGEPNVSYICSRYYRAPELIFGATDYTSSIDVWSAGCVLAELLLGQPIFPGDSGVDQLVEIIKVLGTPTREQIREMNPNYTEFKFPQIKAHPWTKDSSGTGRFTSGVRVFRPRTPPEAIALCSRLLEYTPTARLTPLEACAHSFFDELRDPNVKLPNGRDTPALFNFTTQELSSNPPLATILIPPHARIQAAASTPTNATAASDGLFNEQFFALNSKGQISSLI
Chain of PKC-βII (P05771 1-673 isoform P05771-2): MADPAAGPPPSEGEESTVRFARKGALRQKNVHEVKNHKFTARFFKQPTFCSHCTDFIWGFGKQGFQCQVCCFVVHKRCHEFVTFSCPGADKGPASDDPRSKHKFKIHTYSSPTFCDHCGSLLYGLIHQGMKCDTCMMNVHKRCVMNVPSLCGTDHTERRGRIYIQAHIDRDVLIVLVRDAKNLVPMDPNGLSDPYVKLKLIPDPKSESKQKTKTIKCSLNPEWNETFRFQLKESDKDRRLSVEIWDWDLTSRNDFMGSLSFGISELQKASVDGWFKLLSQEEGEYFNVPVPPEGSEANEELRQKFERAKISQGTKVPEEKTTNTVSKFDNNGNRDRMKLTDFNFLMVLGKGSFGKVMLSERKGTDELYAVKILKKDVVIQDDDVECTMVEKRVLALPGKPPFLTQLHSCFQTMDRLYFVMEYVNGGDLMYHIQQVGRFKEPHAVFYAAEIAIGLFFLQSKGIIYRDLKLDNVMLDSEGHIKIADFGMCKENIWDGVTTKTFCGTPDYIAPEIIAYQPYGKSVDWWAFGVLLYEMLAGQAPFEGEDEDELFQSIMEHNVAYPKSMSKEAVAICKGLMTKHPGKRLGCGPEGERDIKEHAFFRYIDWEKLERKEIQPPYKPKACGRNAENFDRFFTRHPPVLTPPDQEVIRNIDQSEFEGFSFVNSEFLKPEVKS

IC50 (PKC-γ) [µM]	inhibition at 1 µM (PKC-βII) [%]	IC50 (PKC-α) [µM]	IC50 [1] [µM]	inhibition at 10 µM (PKC-γ; @10 μM) [%]	inhibition at 10 µM (PKC-α; @10 μM) [%]	SMILES
4.21	28	2.51	0.02	–	–	COCCCn1cc(C2=C(c3ccccc3Cl)C(=O)NC2=O)c2cnccc21 [Cpd 2, 3-(2-Chlorophenyl)-4-[1-(3-methoxypropyl)-1H-pyrrolo[3,2-c]pyridin-3-yl]-1H-pyrrole-2,5-dione]
–	22	–	0.0018	25	31	COCCCn1cc(C2=C(c3ccccc3OC)C(=O)NC2=O)c2cnccc21 [Cpd 1, 3-(2-Methoxyphenyl)-4-[1-(3-methoxypropyl)-1H-pyrrolo[3,2-c]pyridin-3-yl]-1H-pyrrole-2,5-dione]
